Experimental findings from patent publication US9493485B2, “Spirocyclic dihydro-thiazine and dihydro-oxazine BACE inhibitors, and compositions and uses thereof” (Imago Pharmaceuticals, Inc., priority 2012, dated 2016) are described below.

Assay [1] relates to Aβ x-40 levels. In words: In vivo reduction of Aβ x-40 levels in Sprague Dawley rat, oral dosing. Particulars: for effect on brain Aβ x-40 levels / decrease of the mean Aβ x-40 compared to vehicle control in brain samples: rat cortical brain, 3 hours post dosing. The method, then:
Ability of a compound as described herein to reduce the level of Aβ peptide in vivo was determined in a Sprague Dawley rat model. Compounds were dosed orally in female Sprague Dawley rats, along with a vehicle control, five rats per dose group. Compounds were formulated in 5% DMSO/0.5% methylcellulose, and dosed at various amounts (10 mL/kg), and 10 mL/kg vehicle by oral gavage. CSF was collected from the cistern magna under isoflurane anesthesia, frozen on dry ice and stored at −80° C. until assessed for Aβ peptide levels. […] Cortical brain samples were homogenized in 5 M guanidine and Aβ peptide was quantitated in these brain samples as well as plasma samples in an ELISA assay, where Aβ x-40 ELISA detects Aβ peptide N-terminal sequences containing the transmembrane region and ending at amino acid 40 at the C-terminus. The ELISA was performed as described in Johnson-Wood et al., PNAS February 1997, 94: 1550-1555, using capture antibody 266 (Aβ 16-23 specific) and biotinylated 2G3 (Aβ 40 specific) as reporter antibody. Results of cortical and plasma Aβ x-40 levels were statistically analyzed separately using a one-way Anova with a Dunnets post test analysis at the 0.05 significant level.

Assay [2] deals with BACE1 inhibition in HEKp293 cells transfected with APP751 gene (SWE293). Nature of the assay: SWE293 cellular assay: reduction of Aβ peptide production, ELISA. The assay is classed as cell-based. Particulars: Homo sapiens, read-out: SWE293 ED50. Put shortly: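 SWE293 cells (HEK293 carrying APP751), plated overnight at 37 °C, received 1:3 serially diluted compound for two successive 2 h exposures with washes between. Medium Aβ was captured on 266-antibody plates, detected with 3D6 antibody and streptavidin-AP fluorescent substrate, and quantified against an Aβ-40 standard curve.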
On the technique in general: ELISA stands for enzyme-linked immunosorbent assay.

Assay [3] concerns the target Cathepsin D (Homo sapiens (Human), UniProt P07339). Nature of the assay: Cathepsin D FP assay. Format: biochemical. Particulars: pH 4.5, read-out: CatD FP IC50. In short, it runs like this: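 AlphaScreen (PBS, 0.01% Tween-20, 0.05% BSA, pH 7.0): compound preincubated 15 min with BACE1 ([…]), then biotinylated binding-site probe 1 h, beads 2 h; IC50 from signal. FP (100 mM sodium acetate, pH 4.5, 0.001% Tween-20): added BACE1 (0.3 nM) or cathepsin D (1.8 nM), 30 min RT.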

For assay [4], the target named is T1, BACE1 (Homo sapiens (Human), UniProt P56817). In words: BACE1 AlphaScreen assay (displacement of biotinylated BACE1 binding site probe). Particulars: read-out: BACE1 AS IC50. On the technique in general: Alpha assays give light when donor and acceptor beads are brought close together.
The target in assay [5] is T1, BACE1. Nature of the assay: BACE1 FP assay. Particulars: pH 4.5. Format: biochemical.
Setting [6] is: dose at which Aβ level is reduced by 50%, HEKp293 SWE293 cells.

The structures appear in SMILES notation. Like-named read-outs stand apart in the source and are kept apart here.

T1 sequence (P56817 46-501): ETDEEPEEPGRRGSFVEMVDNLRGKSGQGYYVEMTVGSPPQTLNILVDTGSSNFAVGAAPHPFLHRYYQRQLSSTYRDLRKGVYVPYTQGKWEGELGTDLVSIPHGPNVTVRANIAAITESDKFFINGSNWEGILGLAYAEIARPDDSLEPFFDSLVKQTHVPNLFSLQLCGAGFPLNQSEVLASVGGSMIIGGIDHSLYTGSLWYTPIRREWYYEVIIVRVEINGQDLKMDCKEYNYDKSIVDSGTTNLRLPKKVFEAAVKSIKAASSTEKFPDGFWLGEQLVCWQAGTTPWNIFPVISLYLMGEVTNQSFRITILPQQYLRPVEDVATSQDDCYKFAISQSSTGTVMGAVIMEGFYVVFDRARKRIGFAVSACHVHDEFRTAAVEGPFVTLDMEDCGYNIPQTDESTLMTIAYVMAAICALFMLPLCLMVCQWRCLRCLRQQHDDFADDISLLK
Sequence of Cathepsin D (P07339 65-412, species assumed): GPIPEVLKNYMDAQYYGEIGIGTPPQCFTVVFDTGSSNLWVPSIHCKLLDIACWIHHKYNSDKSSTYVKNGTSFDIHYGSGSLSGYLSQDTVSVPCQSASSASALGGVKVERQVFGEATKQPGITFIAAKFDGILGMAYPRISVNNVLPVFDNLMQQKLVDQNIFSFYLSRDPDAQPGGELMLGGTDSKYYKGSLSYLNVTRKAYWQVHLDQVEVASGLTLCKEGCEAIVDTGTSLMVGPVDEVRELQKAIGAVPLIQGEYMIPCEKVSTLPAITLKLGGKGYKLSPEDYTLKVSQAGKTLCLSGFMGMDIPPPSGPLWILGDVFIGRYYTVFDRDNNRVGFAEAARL

In the case of `CC#Cc1cncc(-c2csc([C@]3(C)CC4(CCOCC4)OC(N)=N3)c2)c1` [Compound 104], the “effect on brain Aβ x-40 levels” value in assay [1] (50 and 200 mg/kg oral) is “no significant effect”.

Take `CC1(c2cc(NC(=O)c3ccc(F)cn3)ccc2F)CC2(CCC2)OC(N)=N1` (centres unmarked) [Compound 125]: the “effect on brain Aβ x-40 levels” value in assay [1] (30 or 100 mg/kg oral) was “no significant effect”.

For the molecule `C[C@@]1(c2cc(NC(=O)c3ccc(Cl)cn3)ccc2F)CC2(CC2)OC(N)=N1` [Compound 154], the “decrease of the mean Aβ x-40 compared to vehicle control in brain samples” value in assay [1] (100 mg/kg oral) is recorded as 25%.

As for `C[C@@]1(c2cc(NC(=O)c3ccc(Cl)cn3)ccc2F)CC2(CCOCC2)SC(N)=N1` [Compound 151], in assay [1] (30 mg/kg oral, rat, various timepoints, CSF), the “duration of reduction in Aβ x-40 levels in CSF (relative to 12 hours in brain)” value is on record as “longer”. Also, in assay [1] (30 mg/kg oral, rat, various timepoints, brain), the “duration of reduction in Aβ x-40 levels in brain samples” value is “up to 12 hours”.

Take `CC1(c2cc(NC(=O)c3ccc(Cl)cn3)ccc2F)CC2(CCOCC2)OC(N)=N1` (centres unmarked) [Compound 9-121, N-(3-(2-amino-4-methyl-1,9-dioxa-3-azaspiro[5.5]undec-2-en-4-yl)-4-fluorophenyl)-5-chloropicolinamide]: the IC50 is 6 nM in assay [2], greater than 30000 nM in assay [3], 9 nM in assay [4] and 73 nM in assay [5].

As to `C[C@@]1(c2cc(NC(=O)c3ccc(C#N)cn3)ccc2F)CC2(CCC2)OC(N)=N1` [Compound 9-130, (S)—N-(3-(6-amino-8-methyl-5-oxa-7-azaspiro[3.5]non-6-en-8-yl)-4-fluorophenyl)-5-cyanopicolinamide], the IC50 in assay [2] (setting [6]) was 5.4 nM; in assay [3] it was greater than 30000 nM; in assay [4] it was 6 nM; in assay [5], 46 nM.

As for `CC#Cc1cncc(-c2csc(C3(C)CC4(CCC4)OC(N)=N3)c2)c1` (centres unmarked) [Compound 8-103, 8-methyl-8-(4-(5-(prop-1-ynyl)pyridin-3-yl)thiophen-2-yl)-5-oxa-7-azaspiro[3.5]non-6-en-6-amine], the IC50 in assay [2] (setting [6]) amounted to 582 nM; in assay [3] it was 7920 nM; in assay [4] it was 30 nM; in assay [5], 1360 nM.

Turning to `CC1(c2cc(NC(=O)c3ccc(F)cn3)ccc2F)CC2(CCC2)OC(N)=N1` (centres unmarked) [Compound 9-125, N-(3-(6-amino-8-methyl-5-oxa-7-azaspiro[3.5]non-6-en-8-yl)-4-fluorophenyl)-5-fluoropicolinamide], the IC50 in assay [2] (setting [6]) was 67 nM; in assay [3], greater than 30000 nM; in assay [4], 29 nM; in assay [5] it was 366 nM.

`C[C@]1(c2cc(NC(=O)c3ccc(F)cn3)ccc2F)CC2(CCC2)OC(N)=N1` [Compound 9-127, (R)—N-(3-(6-amino-8-methyl-5-oxa-7-azaspiro[3.5]non-6-en-8-yl)-4-fluorophenyl)-5-fluoropicolinamide]: the IC50 in assay [2] (setting [6]) is greater than 10000 nM; in assay [3], greater than 30000 nM; in assay [4] it was 1310 nM; in assay [5], 7440 nM.

As for `CC1(c2cc(NC(=O)c3ccc(F)cn3)ccc2F)N=C(N)OC2(CCC2)C1(F)F` (centres unmarked) [Compound 9-159, N-(3-(6-amino-9,9-difluoro-8-methyl-5-oxa-7-azaspiro[3.5]non-6-en-8-yl)-4-fluorophenyl)-5-fluoropicolinamide], the IC50 in assay [2] is 225 nM; in assay [3], greater than 30000 nM; in assay [4], 40 nM; in assay [5], 210 nM.

On to `C[C@@]1(c2cc(NC(=O)c3ccc(Cl)cn3)ccc2F)CC2(CCC2)SC(N)=N1` [Compound 9-145, (S)—N-(3-(6-amino-8-methyl-5-thia-7-azaspiro[3.5]non-6-en-8-yl)-4-fluorophenyl)-5-chloropicolinamide], for which the IC50 is 2 nM in assay [2] (setting [6]), greater than 30000 nM in assay [3], 4.5 nM in assay [4] and 1.9 nM in assay [5].

For the molecule `C[C@@]1(c2cc(NC(=O)c3ccc(Cl)cn3)ccc2F)CC2(CCC2)OC(N)=N1` [Compound 9-129, (S)—N-(3-(6-amino-8-methyl-5-oxa-7-azaspiro[3.5]non-6-en-8-yl)-4-fluorophenyl)-5-chloropicolinamide], the IC50 is 37 nM in assay [2] (setting [6]), greater than 30000 nM in assay [3], 8.3 nM in assay [4] and 107 nM in assay [5].

On to `C[C@@]1(c2cc(NC(=O)c3ccc(F)cn3)ccc2F)CC2(CCC2)OC(N)=N1` [Compound 9-126, (S)—N-(3-(6-amino-8-methyl-5-oxa-7-azaspiro[3.5]non-6-en-8-yl)-4-fluorophenyl)-5-fluoropicolinamide], for which the IC50 in assay [2] (setting [6]) is 80 nM; in assay [3], greater than 30000 nM; in assay [4], 11 nM; in assay [5], 321 nM.

Regarding `C[C@@]1(c2cc(NC(=O)c3ccc(F)cn3)ccc2F)CC2(CCC(F)(F)CC2)OC(N)=N1` [Compound 9-123, (S)—N-(3-(2-amino-9,9-difluoro-4-methyl-1-oxa-3-azaspiro[5.5]undec-2-en-4-yl)-4-fluorophenyl)-5-fluoropicolinamide], the IC50 was 19 nM in assay [2] (setting [6]), greater than 30000 nM in assay [3], 8.7 nM in assay [4] and 270 nM in assay [5].

Regarding `C[C@@]1(c2cc(NC(=O)c3ccc(Br)cn3)ccc2F)CC2(CCC(F)(F)CC2)OC(N)=N1` [Compound 9-136, (S)—N-(3-(2-amino-9,9-difluoro-4-methyl-1-oxa-3-azaspiro[5.5]undec-2-en-4-yl)-4-fluorophenyl)-5-bromopicolinamide], the IC50 is 8.9 nM in assay [2], greater than 30000 nM in assay [3], 7 nM in assay [4] and 50 nM in assay [5].

On to `C[C@@]1(c2cc(NC(=O)c3ccc(F)cn3)ccc2F)CC2(CCOCC2)SC(N)=N1` [Compound 148], for which the “decrease of the mean Aβ x-40 compared to vehicle control in brain samples” value in assay [1] (10 mg/kg oral) stood at 23%; in assay [1] (30 mg/kg oral) it was 31%; in assay [1] (60 mg/kg oral), 31%; in assay [1] (100 mg/kg oral), 40%.
